Experimental data published in patent US6759538B2, “Substituted diphenyl heterocycles useful for treating HCV infection” (priority 2001, dated 2004).
pIC50: −log10 of the molar value.

Target: HCV replicon
Test: HCV replicon assay (luciferase)
Format: cell-based, Hepatitis C virus (HCV)
Settings: 5-2 Luc replicon cells, 24 hours with compound, luciferase emission; first symbol of Replicon/Western
Text: In one embodiment, the inhibitory activity of the compounds can be confirmed in a replicon assay that assesses the ability of a test compound to block or inhibit HCV replication in replicon cells. One example of a suitable replicon assay is the liver cell-line Huh 7-based replicon assay described in Lohmann et al., 1999, Science 285:110-113. A specific example of this replicon assay which utilizes luciferase translation is provided in the Examples Section. In one embodiment of this assay, the amount of test compound that yields a 50% reduction in translation as compared to a control cell (IC50) may be determined.
The inhibitory activity of certain exemplary compounds of the invention was confirmed using an HCV replicon assay. The HCV replicon can include such features as the HCV 5′ untranslated region including the HCV IRES, the HCV 3′ untranslated region, selected HCV genes encoding HCV polypeptides, selectable markers, and a reporter gene such as luciferase, GFP, etc. In the assay, actively dividing 5-2 Luc replicon-comprising cells (obtained from Rolf Bartenschlager; see Lohmann et al., 1999, Science 285:110-113) were seeded at a density of between about 5,000 and 7,500 cells/well onto 96 well plates (about 90 μl of cells per well) and incubated at 37° C. and 5% CO2 for 24 hours. Then, the test compound (in a volume of about 10 μl) was added to the wells at various concentrations and the cells were incubated for an additional 24 hours before luciferase assay. The media was aspirated from each well and Bright-Glo (Promega, Madison, Wis.) luciferase assay reagents were added to each well according to the manufacturer's instructions. Briefly, the Bright-Glo reagent was diluted 1:1 with PBS and 100 μl of diluted reagent was added to each well. After 5 min of incubation at room temperature, luciferin emission was quantified with a luminometer. In this assay, the amount of test compound that yielded a 50% reduction in luciferase emission (IC50) was determined.

Row | Compound | pIC50
1 | 2,2-Dichloro-N-[3-[3-[2,6-dimethyl-4-(N-morpholino-2-ethyleneoxy)phenyl]-5-isoxazolyl]phenyl] Acetamide [Compound 23] | ≥ 5.00
2 | CN(C)C1CCN(c2cccc(Cl)c2-c2cc(-c3cccc(NC(=O)C(Cl)Cl)c3)on2)C1 (racemic) [Compound 132, (±)-2,2-Dichloro-N-[3-[3-[2-chloro-6-(3-dimethylamino-N-pyrrolidino)phenyl]-5-isoxazolyl]-phenyl] Acetamide] | ≥ 5.00
3 | O=C(Nc1cccc(-c2cc(-c3c(Cl)cccc3Cl)no2)c1)C(Br)Br [Compound 29, 2,2-Dibromo-N-[3-[3-(2,6-dichlorophenyl)-5-isoxazolyl]phenyl] Acetamide] | ≥ 5.00
4 | Cc1cccc(Cl)c1-c1cc(-c2cccc(NC(=O)C(Cl)Cl)c2)on1 [Compound 31, 2,2-Dichloro-N-[3-[3-(2-chloro-6-methylphenyl)-5-isoxazolyl]phenyl] Acetamide] | ≥ 5.00
5 | O=C(Nc1cccc(-c2cc(-c3ccccc3C(F)(F)F)no2)c1)C(Cl)Cl [Compound 33, 2,2-Dichloro-N-[3-[3-(2-trifluoromethylphenyl)-5-isoxazolyl]phenyl] Acetamide] | ≥ 5.00
6 | O=C(Nc1cccc(-c2cc(-c3c(O)cccc3C(F)(F)F)no2)c1)C(Cl)Cl [Compound 35, 2,2-Dichloro-N-[3-[3-(2-hydroxy-6-trifluoromethylphenyl)-5-isoxazolyl]phenyl] Acetamide] | ≥ 5.00
7 | CC(C)c1cccc(Cl)c1-c1cc(-c2cccc(NC(=O)C(Cl)Cl)c2)on1 [Compound 39, 2,2-Dichloro-N-[3-[3-(2-chloro-6-isopropylphenyl)-5-isoxazolyl]phenyl] Acetamide] | ≥ 5.00
8 | O=C(Nc1cccc(-c2cc(-c3c(F)cccc3C(F)(F)F)no2)c1)C(Cl)Cl [Compound 41, 2,2-Dichloro-N-[3-[3-(2-fluoro-6-trifluoromethylphenyl)-5-isoxazolyl]phenyl] Acetamide] | ≥ 5.00
9 | COc1cccc(F)c1-c1cc(-c2cccc(NC(=O)C(Cl)Cl)c2)on1 [Compound 43, 2,2-Dichloro-N-[3-[3-(2-fluoro-6-methoxyphenyl)-5-isoxazolyl]phenyl] Acetamide] | ≥ 5.00
10 | O=C(Nc1cccc(-c2cc(-c3ccccc3OC(F)F)no2)c1)C(Cl)Cl [Compound 45, 2,2-Dichloro-N-[3-[3-(2-difluoromethoxyphenyl)-5-isoxazolyl]phenyl] Acetamide] | ≥ 5.00
11 | Cc1cccc(C)c1-c1cc(-c2cccc(NC(=O)C(Cl)Cl)c2)on1 [Compound 47, 2,2-Dichloro-N-[3-[3-(2,6-dimethylphenyl)-5-isoxazolyl]phenyl] Acetamide] | ≥ 5.00
12 | O=C(Nc1cccc(-c2cc(-c3c(F)cccc3I)no2)c1)C(Cl)Cl [Compound 49, 2,2-Dichloro-N-[3-[3-(2-fluoro-6-iodophenyl)-5-isoxazolyl]phenyl] Acetamide] | ≥ 5.00
13 | Cc1ccc(Cl)c(-c2cc(-c3cccc(NC(=O)C(Cl)Cl)c3)on2)c1F [Compound 51, 2,2-Dichloro-N-[3-[3-(6-chloro-2-fluoro-3-methylphenyl)-5-isoxazolyl]phenyl] Acetamide] | ≥ 5.00
14 | O=C(Nc1cccc(-c2cc(-c3c(F)ccc(F)c3Cl)no2)c1)C(Cl)Cl [Compound 53, 2,2-Dichloro-N-[3-[3-(2-chloro-3,6-difluorophenyl)-5-isoxazolyl]phenyl] Acetamide] | ≥ 5.00
15 | CN(C(=O)C(Cl)Cl)c1cccc(-c2cc(-c3c(Cl)cccc3Cl)no2)c1 [Compound 57, 2,2-Dicbloro-N-[3-[3-(2,6-dichlorophenyl)-5-isoxazolyl]phenyl]-N-methyl Acetamide] | ≥ 5.00
16 | CCOc1ccccc1-c1cc(-c2cccc(NC(=O)C(Cl)Cl)c2)on1 [Compound 61, 2,2-Dichloro-N-[3-[3-(2-ethoxyphenyl)-5-isoxazolyl]phenyl] Acetamide] | ≥ 5.00
17 | CC(C)c1ccccc1-c1cc(-c2cccc(NC(=O)C(Cl)Cl)c2)on1 [Compound 63, 2,2-Dichloro-N-[3-[3-(2-isopropylphenyl)-5-isoxazolyl]phenyl] Acetamide] | ≥ 5.00
18 | CN(C)c1cc(Cl)c(-c2cc(-c3cccc(NC(=O)C(Cl)Cl)c3)on2)c(Cl)c1 [Compound 65, 2,2-Dichloro-N-[3-[3-(2,6-dichloro-4-dimethylaminophenyl)-5-isoxazolyl]phenyl] Acetamide] | ≥ 5.00

Row | Compound | pIC50
19 | O=C(CCl)Nc1cccc(-c2cc(-c3c(Cl)cccc3Cl)no2)c1 [Compound 67, 2-Chloro-N-[3-[3-(2,6-dichlorophenyl)-5-isoxazolyl]phenyl] Acetamide] | ≥ 5.00
20 | O=C(Nc1cccc(-c2cc(-c3c(Cl)cc(OCCCN4CCOCC4)cc3Cl)no2)c1)C(Cl)Cl [Compound 73, 2,2-Dichloro-N-[3-[3-[2,6-dichloro-4-(N-morpholinopropyleneoxy)phenyl]-5-isoxazolyl]-phenyl] Acetamide] | ≥ 5.00
21 | COc1cccc(C(F)(F)F)c1-c1cc(-c2cccc(NC(=O)C(Cl)Cl)c2)on1 [Compound 77, 2,2-Dichloro-N-[3-[3-(2-methoxy-6-trifluoromethylphenyl)-5-isoxazolyl]phenyl] Acetamide] | ≥ 5.00
22 | O=C(Nc1cccc(-c2cc(-c3c(Cl)cccc3C3CC3)no2)c1)C(Cl)Cl [Compound 79, 2,2-Dichloro-N-[3-[3-(2-chloro-6-cyclopropylphenyl)-5-isoxazolyl]phenyl] Acetamide] | ≥ 5.00
23 | COc1cccc(Cl)c1-c1cc(-c2cccc(NC(=O)C(Cl)Cl)c2)on1 [Compound 81, 2,2-Dichloro-N-[3-[3-(2-chloro-6-methoxyphenyl)-5-isoxazolyl]phenyl] Acetamide] | ≥ 5.00
24 | O=C(Nc1cccc(-c2cc(-c3c(O)cccc3Cl)no2)c1)C(Cl)Cl [Compound 83, 2,2-Dichloro-N-[3-[3-(2-chloro-6-hydroxyphenyl)-5-isoxazolyl]phenyl] Acetamide] | ≥ 5.00
25 | Cc1cccc(C(F)(F)F)c1-c1cc(-c2cccc(NC(=O)C(Cl)Cl)c2)on1 [Compound 85, 2,2-Dichloro-N-[3-[3-(2-methyl-6-trifluoromethylphenyl)-5-isoxazolyl]phenyl] Acetamide] | ≥ 5.00
26 | O=C(Nc1cccc(-c2noc(-c3c(Cl)cccc3Cl)n2)c1)C(Cl)Cl [Compound 87, 2,2-Dichloro-N-[3-[5-(2,6-dichlorophenyl)-3-(1,2,4-oxadiazolyl)]phenyl] Acetamide] | ≥ 5.00
27 | O=C(Nc1cccc(-c2cc(-c3c(C4CC4)cccc3C(F)(F)F)no2)c1)C(Cl)Cl [Compound 89, 2,2-Dichloro-N-[3-[3-(2-cyclopropyl-6-trifluoromethylphenyl)-5-isoxazolyl]phenyl] Acetamide] | ≥ 5.00
28 | COc1cccc(C)c1-c1cc(-c2cccc(NC(=O)C(Cl)Cl)c2)on1 [Compound 91, 2,2-Dichloro-N-[3-[3-(2-methoxy-6-methylphenyl)-5-isoxazolyl]phenyl] Acetamide] | ≥ 5.00
29 | CC(C)c1cccc(C(F)(F)F)c1-c1cc(-c2cccc(NC(=O)C(Cl)Cl)c2)on1 [Compound 93, 2,2-Dichloro-N-[3-[3-(2-isopropyl-6-trifluoromethylphenyl)-5-isoxazolyl]phenyl] Acetamide] | ≥ 5.00
30 | O=C(Nc1cccc(-c2cc(-c3c(Cl)cccc3OCCN3CCOCC3)no2)c1)C(Cl)Cl [Compound 95, 2,2-Dichloro-N-[3-[3-[2-chloro-6-(N-morpholino-2-ethyleneoxy)phenyl]-5-isoxazolyl]-phenyl] Acetamide] | ≥ 5.00
31 | O=C(Nc1cccc(-c2cc(-c3c(Cl)cccc3C3CCCC3)no2)c1)C(Cl)Cl [Compound 97, 2,2-Dichloro-N-[3-[3-(2-chloro-6-cyclopentylphenyl)-5-isoxazolyl]phenyl] Acetamide] | ≥ 5.00
32 | CN1CCN(c2cccc(Cl)c2-c2cc(-c3cccc(NC(=O)C(Cl)Cl)c3)on2)CC1 [Compound 99, 2,2-Dichloro-N-[3-[3-[2-chloro-6-(4-methylpiperazino)phenyl]-5-isoxazolyl]phenyl] Acetamide] | ≥ 5.00
33 | CCCCc1cccc(Cl)c1-c1cc(-c2cccc(NC(=O)C(Cl)Cl)c2)on1 [Compound 103, 2,2-Dichloro-N-[3-[3-(2-chloro-6-n-butylphenyl)-5-isoxazolyl]phenyl] Acetamide] | ≥ 5.00
34 | O=C(Nc1cccc(-c2cc(-c3c(C4CCCC4)cccc3C(F)(F)F)no2)c1)C(Cl)Cl [Compound 105, 2,2-Dichloro-N-[3-[3-(2-cyclopentyl-6-trifluoromethylphenyl)-5-isoxazolyl]phenyl] Acetamide] | ≥ 5.00
35 | O=C(Nc1ccc(S(=O)(=O)NN2CCOCC2)c(-c2cc(-c3c(Cl)cccc3Cl)no2)c1)C(Cl)Cl [Compound 107, 2,2-Dichloro-N-[3-[3-(2,6-dichlorophenyl)-5-isoxazolyl]-4-(N-morpholinosulfamoyl)-phenyl] Acetamide] | ≥ 5.00
